# Data as given in US8541460B2, “PDK-1/Akt signaling inhibitors” (The Ohio State University, priority 2003, dated 2013).
# Legend:
# [1] = system: sixty human tumor cell lines; assay: NCI DTP screen, means over sixty human tumor cell lines; type: cell-based; settings: two-day treatment
# Experimental: (§1) Screening of compounds 70 and 71 against several cancer cell lines The human tumor cell lines of the cancer screening panel are grown in RPMI 1640 medium containing 5% fetal bovine serum and 2 mM L-glutamine. For a typical screening experiment, cells are inoculated into 96 well microtiter plates in 100 μL at plating densities ranging from 5,000 to 40,000 cells/well depending on the doubling time of individual cell lines. After cell inoculation, the microtiter plates are incubated at 37° C., 5% CO2, 95% air and 100% relative humidity for 24 h prior to addition of experimental drugs.
# (§2) After 24 h, two plates of each cell line are fixed in situ with TCA, to represent a measurement of the cell population for each cell line at the time of drug addition (Tz). Experimental drugs are solubilized in dimethyl sulfoxide at 400-fold the desired final maximum test concentration and stored frozen prior to use. At the time of drug addition, an aliquot of frozen concentrate is thawed and diluted to twice the desired final maximum test concentration with complete medium containing 50 μg/ml gentamicin. Additional four, 10-fold or ½ log serial dilutions are made to provide a total of five drug concentrations plus control. Aliquots of 100 μl of these different drug dilutions are added to the appropriate microtiter wells already containing 100 μl of medium, resulting in the required final drug concentrations.
# Following drug addition, the plates are incubated for an additional 48 h at 37° C., 5% CO2, 95% air, and 100% relative humidity. For adherent cells, the assay is terminated by the addition of cold TCA. Cells are fixed in situ by the gentle addition of 50 μl of cold 50% (w/v) TCA (final concentration, 10% TCA) and incubated for 60 minutes at 4° C. […] Bound stain is subsequently solubilized with 10 mM trizma base, and the absorbance is read on an automated plate reader at a wavelength of 515 nm. […] Using the seven absorbance measurements [time zero, (Tz), control growth, (C), and test growth in the presence of drug at the five concentration levels (Ti)], the percentage growth is calculated at each of the drug concentrations levels. Percentage growth inhibition is calculated as: [(Ti−Tz)/(C−Tz)]×100 for concentrations for which Ti>/=Tz [(Ti−Tz)/Tz]×100 for concentrations for which Ti<Tz
# Three dose response parameters are calculated for each experimental agent. […] The drug concentration resulting in total growth inhibition (TGI) is calculated from Ti=Tz. […] Values are calculated for each of these three parameters if the level of activity is reached; however, if the effect is not reached or is exceeded, the value for that parameter is expressed as greater or less than the maximum or minimum concentration tested. […]
# [2] = system: SK-MEL-5; assay: NCI DTP cell line screen (SRB), Melanoma; type: cell-based, human; settings: for TGI: in M (unit assumed)
# Experimental: as §1, §2
# (§3) Following drug addition, the plates are incubated for an additional 48 h at 37° C., 5% CO2, 95% air, and 100% relative humidity. For adherent cells, the assay is terminated by the addition of cold TCA. Cells are fixed in situ by the gentle addition of 50 μl of cold 50% (w/v) TCA (final concentration, 10% TCA) and incubated for 60 minutes at 4° C. The supernatant is discarded, and the plates are washed five times with tap water and air dried. Sulforhodamine B (SRB) solution (100 μl) at 0.4% (w/v) in 1% acetic acid is added to each well, and plates are incubated for 10 minutes at room temperature. After staining, unbound dye is removed by washing five times with 1% acetic acid and the plates are air dried. Bound stain is subsequently solubilized with 10 mM trizma base, and the absorbance is read on an automated plate reader at a wavelength of 515 nm. For suspension cells, the methodology is the same except that the assay is terminated by fixing settled cells at the bottom of the wells by gently adding 50 μl of 80% TCA (final concentration, 16% TCA). Using the seven absorbance measurements [time zero, (Tz), control growth, (C), and test growth in the presence of drug at the five concentration levels (Ti)], the percentage growth is calculated at each of the drug concentrations levels. Percentage growth inhibition is calculated as: [(Ti−Tz)/(C−Tz)]×100 for concentrations for which Ti>/=Tz [(Ti−Tz)/Tz]×100 for concentrations for which Ti<Tz
# (§4) Three dose response parameters are calculated for each experimental agent. […] The drug concentration resulting in total growth inhibition (TGI) is calculated from Ti=Tz. […] Values are calculated for each of these three parameters if the level of activity is reached; however, if the effect is not reached or is exceeded, the value for that parameter is expressed as greater or less than the maximum or minimum concentration tested.
# (§5) The methods described were used to test compounds 70 and 71 on a panel of sixty cell lines under a screening service provided by the Developmental Therapeutics Program at the National Institutes of Health. Shown in FIG. 1C are 1, RPMI-8226 leukemia cells; 2; NCI-H322M non-small cell lung cancer cells; 3, HT29 colon cancer cells; 4, U251 CNS cancer cells; 5, SK-MEL-28 melanoma cancer cells; 6, SK-OV-3 ovarian cancer cells; 7, RXF 393 renal cancer cells; 8, PC-3 prostate cancer cells; 9, MDA-MB-231 breast cancer cells.
# [3] = system: MCF7; assay: NCI DTP cell line screen (SRB), Breast Cancer; type: cell-based, human; settings: for TGI: in M (unit assumed)
# Experimental: as §1, §2, §3, §4, §5
# [4] = system: MDA-MB-435; assay: NCI DTP cell line screen (SRB), Breast Cancer; type: cell-based, human; settings: for TGI: in M (unit assumed)
# Experimental: as §1, §2, §3, §4, §5
# [5] = system: HS 578T; assay: NCI DTP cell line screen (SRB), Breast Cancer; type: cell-based
# Experimental: as §1, §2, §3, §4, §5
# [6] = system: MDA-MB-231/ATCC; assay: NCI DTP cell line screen (SRB), Breast Cancer; type: cell-based
# Experimental: as §1, §2, §3, §4, §5
# [7] = system: T-47D; assay: NCI DTP cell line screen (SRB), Breast Cancer; type: cell-based
# Experimental: as §1, §2, §3, §4, §5
# [8] = HS 578T, Log10 Concentration −4.0
# [9] = HS 578T, Log10 Concentration −5.0
# [10] = HS 578T, Log10 Concentration −6.0
# [11] = HS 578T, Log10 Concentration −7.0
# [12] = HS 578T, Log10 Concentration −8.0
compound,measurement,setting,value
"NCC(=O)Nc1ccc(-n2nc(C(F)(F)F)cc2-c2ccc3c(ccc4ccccc43)c2)cc1 [Compound 70, 2-Amino-N-{4-[5-(2-phenanthrenyl)-3-(trifluoromethyl)-1H-pyrazol-1-yl]-phenyl}-acetamide]",mean TGI among the sixty cell lines,[1],3.2 µM
same,Percent Growth,[2]; Log10 Concentration −4.0,−34%
same,Percent Growth,[2]; Log10 Concentration −5.0,−75%
same,Percent Growth,[2]; Log10 Concentration −6.0,69%
same,Percent Growth,[2]; Log10 Concentration −7.0,88%
same,Percent Growth,[2]; Log10 Concentration −8.0,91%
same,TGI,[2],3.02E−06
same,Percent Growth,"[3]; MCF7, Log10 Concentration −4.0",−44%
same,Percent Growth,"[3]; MCF7, Log10 Concentration −5.0",−57%
same,Percent Growth,"[3]; MCF7, Log10 Concentration −6.0",43%
same,Percent Growth,"[3]; MCF7, Log10 Concentration −7.0",89%
same,Percent Growth,"[3]; MCF7, Log10 Concentration −8.0",91%
same,TGI,[3]; MCF7,2.72E−06
same,Percent Growth,[4]; Log10 Concentration −4.0,−14%
same,Percent Growth,[4]; Log10 Concentration −5.0,−69%
same,Percent Growth,[4]; Log10 Concentration −6.0,68%
same,Percent Growth,[4]; Log10 Concentration −7.0,98%
same,Percent Growth,[4]; Log10 Concentration −8.0,103%
same,TGI,[4],3.14E−06
same,TGI,[5]; HS 578T,5.25E−06
same,Percent Growth,[5]; [8],−38%
same,Percent Growth,[5]; [9],−34%
same,Percent Growth,[5]; [10],88%
same,Percent Growth,[5]; [11],99%
same,Percent Growth,[5]; [12],105%
same,CC50,"[5]; Homo sapiens, Hs-578T, read-out: LC50",> 100 µM
same,TGI,[6],2.77E−06
same,Percent Growth,[6]; Log10 Concentration −4.0,−52%
same,Percent Growth,[6]; Log10 Concentration −5.0,−73%
same,Percent Growth,[6]; Log10 Concentration −6.0,58%
same,Percent Growth,[6]; Log10 Concentration −7.0,71%
same,Percent Growth,[6]; Log10 Concentration −8.0,100%
same,TGI,[7],4.21E−06
same,Percent Growth,[7]; Log10 Concentration −4.0,−44%
same,Percent Growth,[7]; Log10 Concentration −5.0,−52%
same,Percent Growth,[7]; Log10 Concentration −6.0,86%
same,Percent Growth,[7]; Log10 Concentration −7.0,109%
same,Percent Growth,[7]; Log10 Concentration −8.0,84%
"N=C(N)Nc1ccc(-n2nc(C(F)(F)F)cc2-c2ccc3c(ccc4ccccc43)c2)cc1 [Compound 71, 4-[5-(2-Phenanthrenyl)-3-(trifluoromethyl)-1H-pyrazol-1-yl]-phenyl-guanidine]",mean TGI among the sixty cell lines,[1],2.9 µM
same,GI50,[1]; read-out: mean GI50 among the sixty cell lines,1.2 µM
same,CC50,[1]; read-out: mean LC50 among the sixty cell lines,8.5 µM
same,GI50,[2],2.22 µM
same,Mean Optical Densities,[2]; Log10 Concentration −4.0,0.363
same,Percent Growth,[2]; Log10 Concentration −4.0,−34%
same,Mean Optical Densities,[2]; Log10 Concentration −5.0,0.143
same,Percent Growth,[2]; Log10 Concentration −5.0,−74%
same,Mean Optical Densities,[2]; Log10 Concentration −6.0,1.812
same,Percent Growth,[2]; Log10 Concentration −6.0,116%
same,Mean Optical Densities,[2]; Log10 Concentration −7.0,1.762
same,Percent Growth,[2]; Log10 Concentration −7.0,111%
same,Mean Optical Densities,[2]; Log10 Concentration −8.0,1.611
same,Percent Growth,[2]; Log10 Concentration −8.0,97%
same,TGI,[2],4.07E−06
same,GI50,[3],1.82 µM
same,Mean Optical Densities,[3]; Log10 Concentration −4.0,0.229
same,Percent Growth,[3]; Log10 Concentration −4.0,−49%
same,Mean Optical Densities,[3]; Log10 Concentration −5.0,0.073
same,Percent Growth,[3]; Log10 Concentration −5.0,−84%
same,Mean Optical Densities,[3]; Log10 Concentration −6.0,1.507
same,Percent Growth,[3]; Log10 Concentration −6.0,97%
same,Mean Optical Densities,[3]; Log10 Concentration −7.0,1.340
same,Percent Growth,[3]; Log10 Concentration −7.0,82%
same,Mean Optical Densities,[3]; Log10 Concentration −8.0,1.467
same,Percent Growth,[3]; Log10 Concentration −8.0,93%
same,TGI,[3]; MCP7,3.44E−06
same,GI50,[4],1.7 µM
same,Mean Optical Densities,[4]; Log10 Concentration −4.0,0.295
same,Percent Growth,[4]; Log10 Concentration −4.0,−27%
same,Mean Optical Densities,[4]; Log10 Concentration −5.0,−0.073
same,Percent Growth,[4]; Log10 Concentration −5.0,−100%
same,Mean Optical Densities,[4]; Log10 Concentration −6.0,1.444
same,Percent Growth,[4]; Log10 Concentration −6.0,95%
same,Mean Optical Densities,[4]; Log10 Concentration −7.0,1.382
same,Percent Growth,[4]; Log10 Concentration −7.0,89%
same,Mean Optical Densities,[4]; Log10 Concentration −8.0,1.376
same,Percent Growth,[4]; Log10 Concentration −8.0,89%
same,TGI,[4],3.07E−06
same,GI50,[5]; HS 578T,1.86 µM
same,TGI,[5]; HS 578T,3.78E−06
same,Mean Optical Densities,[5]; [8],0.333
same,Percent Growth,[5]; [8],−38%
same,Mean Optical Densities,[5]; [9],0.168
same,Percent Growth,[5]; [9],−69%
same,Mean Optical Densities,[5]; [10],1.127
same,Percent Growth,[5]; [10],94%
same,Mean Optical Densities,[5]; [11],1.165
same,Percent Growth,[5]; [11],100%
same,Mean Optical Densities,[5]; [12],1.099
same,Percent Growth,[5]; [12],89%
same,TGI,[6],1.66E−06
same,Mean Optical Densities,[6]; Log10 Concentration −4.0,0.389
same,Percent Growth,[6]; Log10 Concentration −4.0,−39%
same,Mean Optical Densities,[6]; Log10 Concentration −5.0,0.015
same,Percent Growth,[6]; Log10 Concentration −5.0,−98%
same,Mean Optical Densities,[6]; Log10 Concentration −6.0,0.709
same,Percent Growth,[6]; Log10 Concentration −6.0,27%
same,Mean Optical Densities,[6]; Log10 Concentration −7.0,0.830
same,Percent Growth,[6]; Log10 Concentration −7.0,78%
same,Mean Optical Densities,[6]; Log10 Concentration −8.0,0.756
same,Percent Growth,[6]; Log10 Concentration −8.0,47%
same,GI50,[7],< 0.01 µM
same,TGI,[7],1.98E−06
same,Mean Optical Densities,[7]; Log10 Concentration −4.0,0.198
same,Percent Growth,[7]; Log10 Concentration −4.0,−53%
same,Mean Optical Densities,[7]; Log10 Concentration −5.0,0.100
same,Percent Growth,[7]; Log10 Concentration −5.0,−76%
same,Mean Optical Densities,[7]; Log10 Concentration −6.0,0.529
same,Percent Growth,[7]; Log10 Concentration −6.0,32%
same,Mean Optical Densities,[7]; Log10 Concentration −7.0,0.578
same,Percent Growth,[7]; Log10 Concentration −7.0,47%
same,Mean Optical Densities,[7]; Log10 Concentration −8.0,0.541
same,Percent Growth,[7]; Log10 Concentration −8.0,36%
same,CC50,[7]; read-out: LC50 (the source's name),5.72 µM
